The target in this experiment is PI3Kalpha (Homo sapiens (Human), UniProt P42336). The conditions noted are these: read-out: IC50 PI3K.
Sequence of PI3Kalpha (P42336 whole entry, looked up): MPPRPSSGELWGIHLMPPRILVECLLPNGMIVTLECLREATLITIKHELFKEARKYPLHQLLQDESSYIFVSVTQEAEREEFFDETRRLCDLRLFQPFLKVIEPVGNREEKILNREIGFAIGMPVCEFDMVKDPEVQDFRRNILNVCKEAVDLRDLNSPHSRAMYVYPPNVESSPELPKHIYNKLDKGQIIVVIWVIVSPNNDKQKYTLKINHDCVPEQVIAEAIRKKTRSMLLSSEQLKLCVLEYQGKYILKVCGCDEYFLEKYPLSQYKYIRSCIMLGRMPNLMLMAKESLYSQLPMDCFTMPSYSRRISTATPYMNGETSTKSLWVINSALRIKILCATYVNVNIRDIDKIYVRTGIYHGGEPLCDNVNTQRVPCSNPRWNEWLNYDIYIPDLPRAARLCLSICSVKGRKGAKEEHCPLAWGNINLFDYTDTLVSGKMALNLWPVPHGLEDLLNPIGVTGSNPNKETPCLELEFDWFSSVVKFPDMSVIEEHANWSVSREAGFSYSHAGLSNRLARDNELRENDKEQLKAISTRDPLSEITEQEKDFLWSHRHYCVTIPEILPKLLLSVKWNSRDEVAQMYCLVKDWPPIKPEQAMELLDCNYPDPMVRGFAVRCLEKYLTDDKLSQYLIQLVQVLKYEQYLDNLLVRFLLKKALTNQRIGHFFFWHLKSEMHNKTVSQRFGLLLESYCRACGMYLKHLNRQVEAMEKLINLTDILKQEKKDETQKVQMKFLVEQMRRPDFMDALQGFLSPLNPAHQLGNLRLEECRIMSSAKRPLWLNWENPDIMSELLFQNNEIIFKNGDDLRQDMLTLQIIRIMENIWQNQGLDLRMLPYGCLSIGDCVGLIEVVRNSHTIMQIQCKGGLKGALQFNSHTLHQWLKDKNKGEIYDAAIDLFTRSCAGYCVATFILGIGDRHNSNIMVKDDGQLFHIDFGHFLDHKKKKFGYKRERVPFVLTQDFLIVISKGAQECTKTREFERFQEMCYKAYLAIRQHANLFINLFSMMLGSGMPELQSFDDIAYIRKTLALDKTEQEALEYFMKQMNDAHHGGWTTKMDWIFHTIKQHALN
Broadly, the IC50 is the midpoint of a concentration-inhibition curve. Regarding `CCc1ncnc(-c2cc(F)c(C(=O)N3CCN(C(C)C)CC3)c(Cl)c2)c1C#Cc1ccc(N)nc1` [Example E-234], the IC50 was found to be 263 nM.
In the case of `CCc1ncnc(-c2ccc(C(=O)N3CC[C@H](N(C)C)C3)c(Cl)c2)c1C#Cc1ccc(NC)nc1` [Example E-190], the IC50 came out at 175 nM.
With `CCc1ncnc(-c2ccc(C(=O)N3CCN(CCN(C)C)CC3)c(F)c2)c1C#Cc1ccc(N)nc1C` [Example D-26], the IC50 was found to be 552 nM.
With `CCc1ncnc(-c2ccc(C(=O)N3CCC(CN(C)C)CC3)c(F)c2)c1C#Cc1ccc(N)nc1C` [Example E-281], the IC50 was found to be 679 nM.
The value for `CCc1ncnc(-c2ccc(C(=O)N3CCN(CC4CCCCC4)CC3)c(OC)c2)c1C#Cc1ccc(N)nc1` [Example E-67] was 3050 nM; that for `CCc1ncnc(-c2ccc(S(C)(=O)=O)cc2)c1C#Cc1ccc(C)nc1` [Example C-17] was 99 nM.
For `CCc1ncnc(-c2cc(F)c(C(=O)N3CCN(CCOCCO)CC3)c(Cl)c2)c1C#Cc1ccc(N)nc1` [Example E-310], the IC50 was 86 nM.
Take `CCc1ncnc(-c2ccc(C(=O)N(C)O)c(C)c2)c1C#Cc1ccc(N)nc1` [Example E-128]: the IC50 was found to be 37.2 nM.
Consider `CCc1ncnc(-c2cc(F)c(C(=O)N3CCC4(CC3)COC4)c(F)c2)c1C#Cc1ccc(N)nc1` [Example E-150], for which the IC50 came to 120 nM.
For `CCc1ncnc(-c2ccc(C(=O)N3CC[C@@H](O)C3)c(F)c2)c1C#Cc1ccc(N)nc1` [Example D-204], the IC50 is 69 nM.
The value for `CCc1ncnc(-c2ccc(C(=O)N3CCN(CC(F)F)CC3)c(Cl)c2)c1C#Cc1ccc(NC)nc1` [Example E-187] was 162 nM; that for `CCc1ncnc(-c2ccc(C(=O)N3CCC(N4CCOCC4)CC3)c(Cl)c2)c1C#Cc1ccc(N)nc1` [Example E-71] was 99.9 nM.
`CCc1ncnc(-c2ccc(C(=O)NCCN3CCOCC3)c(F)c2)c1C#Cc1ccc(N)nc1` [Example D-217]: the IC50 was found to be 44 nM.
As to `CCc1ncnc(-c2ccc(C(=O)N3CCN(CCN(C)C)CC3)c(OC)c2)c1C#Cc1ccc(N)nc1` [Example D-60], the IC50 is 546 nM.
On to `CCc1ncnc(-c2ccc(C(=O)N3CCC4(CC3)CNC4)c(F)c2)c1C#Cc1ccc(N)nc1` [Example E-268], for which the IC50 was 242 nM.
On to `CCc1ncnc(-c2ccc(C(=O)N3CCCC(O)C3)c(OC)c2)c1C#Cc1ccc(N)nc1` (stereo not shown) [Example E-46], for which the IC50 is 104 nM.
With `CNC(=O)c1ccc(-c2ncnc(C)c2C#Cc2ccc(N)nc2)cc1Cl` [Example C-5], the IC50 was found to be 50 nM.
Turning to `CCc1ncnc(-c2ccc(C(=O)N3CCCC(O)C3)c(Cl)c2)c1C#Cc1ccc(N)nc1` (stereo not shown) [Example E-29], the IC50 amounted to 65 nM.
In the case of `CCc1ncnc(-c2cc(F)c(C(=O)N3CC[C@@H](N(C)C)C3)c(F)c2)c1C#Cc1ccc(NC)nc1` [Example E-209], the IC50 amounted to 546 nM.
Turning to `CCc1ncnc(-c2ccc(C(=O)N3CCN(C)C(=O)C3)c(F)c2)c1C#Cc1ccc(N)nc1` [Example D-133], the IC50 worked out at 115 nM.
Consider `CCc1ncnc(-c2cc(F)c(C(=O)N3CCC4(CC3)CNC4)c(Cl)c2)c1C#Cc1ccc(N)nc1` [Example E-162], for which the IC50 is 540 nM.
`CCc1ncnc(-c2ccc(C(=O)N3CCN(CC)CC3)c(C(F)(F)F)c2)c1C#Cc1ccc(N)nc1` [Example E-231]: the IC50 amounted to 185 nM.
Turning to `CCc1ncnc(-c2ccc(C(=O)N3CCC4(CN(C(=O)OC(C)(C)C)C4)C3)c(F)c2)c1C#Cc1ccc(N)nc1` [Example E-323], the IC50 is 842 nM.
To `CCc1ncnc(-c2ccc(C(=O)N3CCN(CCOCCO)CC3)c(Cl)c2)c1C#Cc1ccc(N)nc1` [Example E-318] belongs 107 nM; to `CCc1ncnc(-c2ccc(C(=O)N3CCN(c4ccccc4)CC3)c(Cl)c2)c1C#Cc1ccc(N)nc1` [Example D-39], 89 nM.
On to `CCc1ncnc(-c2ccc(C(=O)N3CCCC(O)C3)c(Cl)c2)c1C#Cc1ccc(N)nc1` [Example D-147], for which the IC50 was 65 nM.
Take `CCc1ncnc(-c2ccc(C(=O)N3CCOCC3)c(F)c2)c1C#Cc1ccc(N)nc1` [Example D-239]: the half-inhibitory concentration (IC50) amounted to 55 nM.
For the compound `CCc1ncnc(-c2ccc(C(=O)N3CCN(C4CCOCC4)CC3)c(Cl)c2)c1C#Cc1ccc(NC)nc1` [Example E-186], the IC50 was 325 nM.
Turning to `CCc1ncnc(-c2ccc(C(=O)N3CCCO3)cc2)c1C#Cc1ccc(N)nc1` [Example D-222], the IC50 came out at 42 nM.
`CCc1ncnc(-c2ccc(C(=O)NC3CCCN(C4CCN(C)CC4)C3)c(F)c2)c1C#Cc1ccc(N)nc1` [Example D-205]: the IC50 amounted to 335 nM.
For the compound `CCc1ncnc(-c2cc(Cl)c(C(=O)N3CCC(C(C)(C)O)CC3)c(Cl)c2)c1C#Cc1ccc(N)nc1` [Example E-201], the IC50 came to 98.1 nM.
`CCc1ncnc(-c2ccc(C(=O)N3CCC(C(C)(C)O)CC3)c(F)c2)c1C#Cc1ccc(NC)nc1` [Example E-177]: the IC50 was 337 nM.
Take `CCc1ncnc(-c2ccc(C(=O)N3CCN(C4CCC4)CC3)c(Cl)c2)c1C#Cc1ccc(N)nc1` [Example E-252]: the concentration for half-maximal inhibition (IC50) was 48.2 nM.
Consider `CCc1ncnc(-c2ccc(N(C)C)nc2)c1C#Cc1ccc(N)nc1` [Example C-34], for which the IC50 worked out at 37 nM.
As for `CCc1ncnc(-c2ccc(C(=O)N3CCN(c4ccccn4)CC3)c(C)c2)c1C#Cc1ccc(N)nc1` [Example E-130], the IC50 came to 69.1 nM.
As for `CCc1ncnc(-c2ccc(C(=O)N3CCN(C(C)=O)CC3)c(OC)c2)c1C#Cc1ccc(N)nc1` [Example D-56], the IC50 stood at 73 nM.
As for `CCc1ncnc(-c2ccc(C(=O)NCC3CCN(C)CC3)c(F)c2)c1C#Cc1ccc(N)nc1` [Example D-77], the IC50 stood at 303 nM.
To `CCc1ncnc(-c2cc(F)c(C(=O)N3CCn4c(C)cnc4C3)c(Cl)c2)c1C#Cc1ccc(N)nc1` [Example E-157] belongs 37.5 nM; to `CCc1ncnc(-c2ccc(C(=O)NCC3CCNCC3)c(F)c2)c1C#Cc1ccc(N)nc1` [Example E-168], 373 nM; to `CCNc1ccc(C#Cc2c(CC)ncnc2-c2ccc(C(=O)N3CCn4cnnc4C3)c(F)c2)cn1` [Example E-261], 44.3 nM.
As for `CCc1ncnc(-c2ccc(C(=O)N3CCN(CC(C)(C)O)CC3)c(F)c2)c1C#Cc1ccc(N)nc1` [Example E-349], the IC50 came to 175 nM.
Regarding `CCc1ncnc(-c2ccc(C(=O)N3CCC4(CCN(C(=O)OC(C)(C)C)CC4)C3)c(F)c2)c1C#Cc1ccc(N)nc1` [Example E-327], the IC50 worked out at 1360 nM.
As for `CCc1ncnc(-c2cc(F)c(C(=O)N3CCN(C)C[C@H]3C)c(F)c2)c1C#Cc1ccc(N)nc1` [Example E-340], the IC50 was 364 nM.
To `CCc1ncnc(-c2ccc(C(=O)N3CCN(C(C)C)CC3)c(C(F)(F)F)c2)c1C#Cc1ccc(N)nc1` [Example E-230] belongs 279 nM; to `CCc1ncnc(-c2ccc(C(=O)N3CC[C@H](N(C)C)C3)c(OC)c2)c1C#Cc1ccc(N)nc1` [Example E-55], 148 nM.
For `Cc1ncnc(-c2ccc(C(=O)N3CC(O)CO3)c(Cl)c2)c1C#Cc1ccc(N)nc1` [Example D-232], the IC50 turned out to be 38 nM.
`CCc1ncnc(-c2ccc(C(=O)N3CCC(C(F)(F)F)CC3)c(F)c2)c1C#Cc1ccc(N)nc1C` [Example D-14]: the IC50 was determined as 647 nM.
In the case of `CCc1ncnc(-c2ccc(C(=O)NC3CC(C)(C)N(C)C(C)(C)C3)c(F)c2)c1C#Cc1ccc(N)nc1` [Example D-202], the IC50 is 413 nM.
`CCc1ncnc(-c2ccc(C(=O)N3CCN(C)C[C@H]3C)c(F)c2)c1C#Cc1ccc(N)nc1` [Example E-347]: the IC50 came out at 205 nM.
Consider `CCc1ncnc(-c2ccc(C(=O)N3CCN(c4ccccn4)CC3)c(Cl)c2)c1C#Cc1ccc(N)nc1` [Example D-37], for which the IC50 came out at 118 nM.
To `CCc1ncnc(-c2ccc(C(=O)N3CCC(N4CCOCC4)C3)c(F)c2)c1C#Cc1ccc(N)nc1` [Example D-234] belongs 156 nM; to `CCc1ncnc(-c2ccc(C(=O)N3CCN(C4CCCC4)CC3)c(F)c2)c1C#Cc1ccc(N)nc1` [Example D-96], 151 nM; to `CCc1ncnc(-c2ccc(C(=O)NCCN3CCCC3=O)c(F)c2)c1C#Cc1ccc(N)nc1` [Example D-211], 46 nM.
Take `Cc1ncnc(-c2ccc(C3CC3)nc2)c1C#Cc1ccc(N)nc1` [Example C-26]: the IC50 turned out to be 43 nM.
Regarding `CCc1ncnc(-c2cc(F)c(C(=O)N3CCC(CN)CC3)c(Cl)c2)c1C#Cc1ccc(N)nc1` [Example E-285], the IC50 worked out at 647 nM.
For `CCc1ncnc(-c2cc(F)c(C(=O)N3CCN(C4COC4)CC3)c(Cl)c2)c1C#Cc1ccc(N)nc1` [Example E-282], the IC50 was found to be 173 nM.
In the case of `CCc1ncnc(-c2ccc(C(=O)N3CCN(CCOC)CC3)c(F)c2)c1C#Cc1ccc(N)nc1` [Example D-95], the IC50 is 145 nM.
Turning to `CCc1ncnc(-c2ccc(C(=O)N3CCC(C(C)(C)O)CC3)c(Cl)c2)c1C#Cc1ccc(NC)nc1` [Example E-184], the IC50 worked out at 399 nM.
Regarding `CCc1ncnc(-c2ccc(C(=O)N3CCC(N4CCOCC4)CC3)c(F)c2)c1C#Cc1ccc(NC)nc1` [Example E-178], the IC50 stood at 335 nM.
As to `CCc1ncnc(-c2ccc(C(=O)N3CC[S+]([O-])CC3)c(C)c2)c1C#Cc1ccc(N)nc1` [Example E-121], the IC50 came to 63.9 nM.
Consider `Cc1ncnc(-c2ccc(F)c(C(=O)N3CCOCC3)c2)c1C#Cc1ccc(N)nc1` [Example C-39], for which the IC50 turned out to be 380 nM.
`CCc1ncnc(-c2ccc(C(=O)NCC(O)CN(C)C)c(F)c2)c1C#Cc1ccc(N)nc1` [Example D-196]: the IC50 was 292 nM.
To `CCc1ncnc(-c2cc(F)c(C(=O)NCCN3CCNCC3)c(F)c2)c1C#Cc1ccc(N)nc1` [Example E-174] belongs 165 nM; to `CCc1ncnc(-c2ccc(C(=O)N3CCCC(N(C)C)C3)c(Cl)c2)c1C#Cc1ccc(N)nc1` (stereo not shown) [Example E-75], 275 nM; to `CON(C)C(=O)c1ccc(-c2ncnc(C)c2C#Cc2ccc(N)nc2)cc1F` [Example D-229], 65 nM.
As to `CCc1ncnc(-c2ccc(C(=O)N3CCN(C4CCCC4O)CC3)c(Cl)c2)c1C#Cc1ccc(N)nc1` (stereo not shown) [Example E-316], the 50% inhibitory concentration (IC50) turned out to be 57.1 nM.
In the case of `CCc1ncnc(-c2ccc(C(=O)N3CCC(N4CCC(C)CC4)C3)c(F)c2)c1C#Cc1ccc(N)nc1` [Example D-108], the IC50 stood at 313 nM.

The values are drawn from patent US8633183B2 (priority 2010, dated 2014).
